This passage reports mutagenic call results from PubChem BioAssay AID1259407 (Chemical Carcinogenesis Research Information System (CCRIS), 2018).

Active and inactive are the calls of the source. How the calls were made is not given here.

For this series, the system named is CCRIS mutagenicity, Ames/micronucleus/aberration tests. The series is described as follows: CCRIS mutagenicity studies.
Where [1] appears, read: Test System: AMES SALMONELLA TYPHIMURIUM, Strain/Indicator: TA98, Metabolic Activation: NONE, Method: STANDARD PLATE.
Setting [2] is: Test System: AMES SALMONELLA TYPHIMURIUM, Strain/Indicator: TA100, Metabolic Activation: NONE, Method: STANDARD PLATE.
[3] abbreviates: Test System: AMES SALMONELLA TYPHIMURIUM, Strain/Indicator: TA1535, Metabolic Activation: NONE, Method: STANDARD PLATE.
[4] abbreviates: Test System: AMES SALMONELLA TYPHIMURIUM, Strain/Indicator: TA1537, Metabolic Activation: NONE, Method: STANDARD PLATE.

With `c1ccc2c(c1)-c1cccc3cccc-2c13`, the mutagenic call (Test System: AMES SALMONELLA TYPHIMURIUM, Strain/Indicator: TA97, Metabolic Activation: NONE, Method: STANDARD PLATE) is “inactive; negative”; the mutagenic call (Test System: AMES SALMONELLA TYPHIMURIUM, Strain/Indicator: TA97, Metabolic Activation: RAT, LIVER, S-9, AROCLOR 1254, Method: TAPED-PLATE) is “active; positive”; the mutagenic call (Test System: AMES SALMONELLA TYPHIMURIUM, Strain/Indicator: TA97, Metabolic Activation: RAT, LIVER, S-9, PCB, Method: STANDARD PLATE) is “active; positive”; the mutagenic call under setting [1] was “inactive; negative”; the mutagenic call (Test System: AMES SALMONELLA TYPHIMURIUM, Strain/Indicator: TA98, Metabolic Activation: RAT, LIVER, S-9, AROCLOR 1254 (4%), Method: STANDARD PLATE) was “inactive; negative”; the mutagenic call (Test System: AMES SALMONELLA TYPHIMURIUM, Strain/Indicator: TA98, Metabolic Activation: RAT, LIVER, S-9, AROCLOR 1254, Method: FLUCTUATION) was “active; positive”. The mutagenic call (Test System: AMES SALMONELLA TYPHIMURIUM, Strain/Indicator: TA98, Metabolic Activation: RAT, LIVER, S-9, AROCLOR 1254, Method: TAPED-PLATE) is “active; positive”; the mutagenic call (Test System: AMES SALMONELLA TYPHIMURIUM, Strain/Indicator: TA98, Metabolic Activation: RAT, LIVER, S-9, PCB, Method: STANDARD PLATE) is “active; positive”; the mutagenic call under setting [2] is “inactive; negative”; the mutagenic call (Test System: AMES SALMONELLA TYPHIMURIUM, Strain/Indicator: TA100, Metabolic Activation: RAT, LIVER, S-9, AROCLOR 1254, Method: FLUCTUATION) was “active; positive”; the mutagenic call (Test System: AMES SALMONELLA TYPHIMURIUM, Strain/Indicator: TA100, Metabolic Activation: RAT, LIVER, S-9, AROCLOR 1254, Method: TAPED-PLATE) is “active; positive”; the mutagenic call (Test System: AMES SALMONELLA TYPHIMURIUM, Strain/Indicator: TA100, Metabolic Activation: RAT, LIVER, S-9, PCB, Method: STANDARD PLATE) is “active; positive”. Besides, the mutagenic call reads like this: (Test System: AMES SALMONELLA TYPHIMURIUM, Strain/Indicator: TA102, Metabolic Activation: RAT, LIVER, S-9, AROCLOR 1254, Method: TAPED-PLATE) “inactive; negative”; (Test System: AMES SALMONELLA TYPHIMURIUM, Strain/Indicator: TA1535, Metabolic Activation: RAT, LIVER, S-9, AROCLOR 1254, Method: TAPED-PLATE) “inactive; negative”; (Test System: AMES SALMONELLA TYPHIMURIUM, Strain/Indicator: TA1537, Metabolic Activation: RAT, LIVER, S-9, AROCLOR 1254, Method: TAPED-PLATE) “active; positive”; (Test System: UDS RAT HEPATOCYTES, Strain/Indicator: THY INCORP, Metabolic Activation: NONE, Method: IN VIVO-IN VITRO) “inactive; negative”.

`CC[C@@H](C)OS(C)(=O)=O`: the mutagenic call by setting is: under setting [2], “inactive; negative”; under setting [3], “active; positive”; (Test System: CHINESE HAMSTER V-79, Strain/Indicator: V-79/6-THIOGUANINE, Metabolic Activation: NONE) “active; positive”.

Turning to `CCC(C)Nc1snc2ccccc12` (stereo not given), the mutagenic call runs as follows: under setting [1], “inactive; negative”; (Test System: AMES SALMONELLA TYPHIMURIUM, Strain/Indicator: TA98, Metabolic Activation: S-9, Method: STANDARD PLATE) “inactive; negative”; under setting [2], “inactive; negative”; (Test System: AMES SALMONELLA TYPHIMURIUM, Strain/Indicator: TA100, Metabolic Activation: S-9, Method: STANDARD PLATE) “inactive; negative”; under setting [3], “inactive; negative”; (Test System: AMES SALMONELLA TYPHIMURIUM, Strain/Indicator: TA1535, Metabolic Activation: S-9, Method: STANDARD PLATE) “inactive; negative”. The mutagenic call was “inactive; negative” under setting [4] and “inactive; negative” (Test System: AMES SALMONELLA TYPHIMURIUM, Strain/Indicator: TA1537, Metabolic Activation: S-9, Method: STANDARD PLATE).

Consider `O=[N+]([O-])c1ccc(-c2ccccc2)c([N+](=O)[O-])c1`, for which the mutagenic call runs as follows: (Test System: AMES SALMONELLA TYPHIMURIUM, Strain/Indicator: TA98, Metabolic Activation: NONE, Method: PREINCUBATION) “active; positive”; (Test System: AMES SALMONELLA TYPHIMURIUM, Strain/Indicator: TA98, Metabolic Activation: RAT, LIVER, S-9, PCB (10%), Method: PREINCUBATION) “active; positive”.

On to `O=C1c2cccc(O)c2C(=O)c2c(O)cccc21`, for which the mutagenic call was “inactive; negative” under setting [1]; “inactive; negative” (Test System: AMES SALMONELLA TYPHIMURIUM, Strain/Indicator: TA98, Metabolic Activation: RAT, LIVER, S-9, AROCLOR 1254, Method: STANDARD PLATE); “inactive; negative” under setting [2]; “inactive; negative” (Test System: AMES SALMONELLA TYPHIMURIUM, Strain/Indicator: TA100, Metabolic Activation: RAT, LIVER, S-9, AROCLOR 1254, Method: STANDARD PLATE); “active; positive” (Test System: AMES SALMONELLA TYPHIMURIUM, Strain/Indicator: TA102, Metabolic Activation: NONE, Method: PREINCUBATION); “inactive; negative” (Test System: AMES SALMONELLA TYPHIMURIUM, Strain/Indicator: TA102, Metabolic Activation: NONE, Method: STANDARD PLATE). Also, the mutagenic call by setting is: (Test System: AMES SALMONELLA TYPHIMURIUM, Strain/Indicator: TA102, Metabolic Activation: RAT LIVER S-9, AROCLOR 1254, Method: STANDARD PLATE) “active; positive”; (Test System: AMES SALMONELLA TYPHIMURIUM, Strain/Indicator: TA102, Metabolic Activation: RAT, LIVER, S-9, AROCLOR 1254, Method: STANDARD PLATE) “active; positive”; (Test System: AMES SALMONELLA TYPHIMURIUM, Strain/Indicator: TA102, Metabolic Activation: RAT, LIVER, S-9, PHENOBARBITONE AND BETA-NAPHTHOFLAVONE, Method: STANDARD PLATE) “active; positive”; (Test System: AMES SALMONELLA TYPHIMURIUM, Strain/Indicator: TA102, Metabolic Activation: RAT, LIVER, S-9, Method: PREINCUBATION) “active; positive”; (Test System: AMES SALMONELLA TYPHIMURIUM, Strain/Indicator: TA102, Metabolic Activation: S-9, Method: STANDARD PLATE) “active; positive”; under setting [3], “inactive; negative”. Further, the mutagenic call runs as follows: (Test System: AMES SALMONELLA TYPHIMURIUM, Strain/Indicator: TA1535, Metabolic Activation: RAT, LIVER, S-9, AROCLOR 1254, Method: STANDARD PLATE) “inactive; negative”; (Test System: AMES SALMONELLA TYPHIMURIUM, Strain/Indicator: TA1537, Metabolic Activation: NONE, Method: PREINCUBATION) “active; positive”; under setting [4], “active; positive”; (Test System: AMES SALMONELLA TYPHIMURIUM, Strain/Indicator: TA1537, Metabolic Activation: RAT, LIVER, S-9, AROCLOR 1254, Method: STANDARD PLATE) “active; positive”; (Test System: AMES SALMONELLA TYPHIMURIUM, Strain/Indicator: TA1537, Metabolic Activation: RAT, LIVER, S-9, Method: PREINCUBATION) “active; positive”; (Test System: AMES SALMONELLA TYPHIMURIUM, Strain/Indicator: TA1538, Metabolic Activation: NONE, Method: STANDARD PLATE) “inactive; negative”. Further, the mutagenic call by setting is: (Test System: AMES SALMONELLA TYPHIMURIUM, Strain/Indicator: TA1538, Metabolic Activation: RAT, LIVER, S-9, AROCLOR 1254, Method: STANDARD PLATE) “inactive; negative”; (Test System: AMES SALMONELLA TYPHIMURIUM, Strain/Indicator: TA2638, Metabolic Activation: S-9, Method: STANDARD PLATE) “active; positive”; (Test System: E. COLI, Strain/Indicator: WP2 (PKM101), Metabolic Activation: RAT, LIVER, S-9, PHENOBARBITONE AND BETA-NAPHTHOFLAVONE, Method: STANDARD PLATE) “inactive; negative”; (Test System: E. COLI, Strain/Indicator: WP2 (PKM101), Metabolic Activation: S-9, Method: STANDARD PLATE) “inactive; negative”; (Test System: E. COLI, Strain/Indicator: WP2 UVRA (PKM101), Metabolic Activation: RAT, LIVER, S-9, PHENOBARBITONE AND BETA-NAPHTHOFLAVONE, Method: STANDARD PLATE) “inactive; negative”; (Test System: E. COLI, Strain/Indicator: WP2 UVRA (PKM101), Metabolic Activation: S-9, Method: STANDARD PLATE) “inactive; negative”.

In the case of `O=C(Nc1cccc(F)c1)c1csc([N+](=O)[O-])c1`, the mutagenic call is “active; positive” under setting [1] and “active; positive” under setting [2].
